We go through 1 compound from publication PMC10743429, “Anti-Inflammatory Effects of Alphitolic Acid Isolated from Agrimonia coreana Nakai Extracts Are Mediated via the Inhibition of ICRAC Activity in T Cells” (International Journal of Molecular Sciences, 2023).

The target of the experiment is T1, ORAI1 (Homo sapiens, UniProt Q96D31).
T1 construct: ORAI1 transiently co-transfected with STIM1 in HEK293T cells; with STIM1
The experiment is described as follows: patch-clamp of ICRAC in HEK293T cells co-expressing ORAI1 and STIM1. The class given is cell-based. A general note: In patch-clamp work, channel activity is measured electrically.

T1 sequence (Q96D31 whole entry): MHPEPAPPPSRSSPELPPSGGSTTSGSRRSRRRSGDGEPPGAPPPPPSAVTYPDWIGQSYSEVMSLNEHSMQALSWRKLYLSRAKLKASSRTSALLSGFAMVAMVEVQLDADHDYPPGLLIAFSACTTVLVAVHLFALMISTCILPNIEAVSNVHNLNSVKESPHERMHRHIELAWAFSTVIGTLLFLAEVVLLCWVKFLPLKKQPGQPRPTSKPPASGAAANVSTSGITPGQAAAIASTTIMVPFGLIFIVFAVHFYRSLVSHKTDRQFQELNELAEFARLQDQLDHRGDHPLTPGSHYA
T1 sequence (Q13586 23-685 partner): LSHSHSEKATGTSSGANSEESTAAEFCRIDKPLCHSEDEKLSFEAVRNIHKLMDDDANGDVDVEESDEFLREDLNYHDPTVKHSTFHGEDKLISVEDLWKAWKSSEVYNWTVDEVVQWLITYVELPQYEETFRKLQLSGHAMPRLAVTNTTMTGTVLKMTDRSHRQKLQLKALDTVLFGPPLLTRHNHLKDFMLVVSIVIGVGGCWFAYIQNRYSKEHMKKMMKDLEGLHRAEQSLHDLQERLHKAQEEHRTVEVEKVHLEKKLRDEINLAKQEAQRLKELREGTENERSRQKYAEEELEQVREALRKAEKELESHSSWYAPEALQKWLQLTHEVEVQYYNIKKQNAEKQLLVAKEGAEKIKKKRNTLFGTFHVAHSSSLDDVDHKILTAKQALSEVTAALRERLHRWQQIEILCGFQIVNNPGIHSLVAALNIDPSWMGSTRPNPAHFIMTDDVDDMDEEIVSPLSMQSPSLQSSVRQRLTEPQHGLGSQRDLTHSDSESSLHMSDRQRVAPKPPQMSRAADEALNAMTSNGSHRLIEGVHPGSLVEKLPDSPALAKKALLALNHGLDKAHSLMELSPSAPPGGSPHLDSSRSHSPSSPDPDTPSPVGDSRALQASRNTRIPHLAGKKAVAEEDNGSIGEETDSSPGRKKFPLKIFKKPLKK

Regarding `C=C(C)[C@@H]1CC[C@]2(C(=O)O)CC[C@]3(C)[C@H](CC[C@@H]4[C@@]5(C)C[C@@H](O)[C@H](O)C(C)(C)[C@@H]5CC[C@]43C)[C@@H]12` [compound 1, alphitolic acid], the IC50 came to 17.5 ± 2.46 µM.

A word on the IC50: it is the midpoint of a concentration-inhibition curve. High values mean weaker potency, low ones greater potency.
